Test results: US11666656B2, “Polymeric conjugates and uses thereof” (Ramot at Tel-Aviv University Ltd., priority 2016, dated 2023)

Experiments:
131/4-5B1 melanoma cells = test: Proliferation of 131/4-5B1 melanoma cells (viable cell count); format: cell-based; conditions: Homo sapiens; 131/4-5B1 cells, 72 hours incubation
Experimental: 131/4-5B1 (human melanoma brain-metastasis cell line that was obtained from Dr. Kerbel' Lab) (15,000/well) were plated onto 24-well culture in RPMI medium supplemented with 10% FBS and incubated for 24 hours (37° C.; 5% CO2). The medium was then replaced with RPMI supplemented with 10% FBS. Cells were exposed to free selumetinib, free amine-modified dabrafenib (Scheme 8) or both, at a SLM-DBF mol ratio of 10:1 at serial dilutions. Number of viable cells was counted by a Z1 Coulter Counter® Cell and Particle Counter (Beckman Coulter®) following 72 hours incubation.
Inhibition of 131/4-5B1, human melanoma brain-metastasis cells by free selumetinib (SLM), free diol-modified dabrafenib (DBFdiol; see, Scheme 11), a combination of the free drugs at 3:1 SLM:DBFdiol mol ratio, PGA-SLM (see, Scheme 19), PGA-DBFdiol (see, Scheme 11), a combination of PGA-SLM and PGA-DBFdiol, and PGA-SLM-DBFdiol conjugate (see, Scheme 23) was determined.
131/4-5B1 cells (15,000/well) were plated onto 24-well culture in RPMI medium supplemented with 10% FBS and incubated for 24 hours (37° C.; 5% CO2). […] Cells were exposed to PGA-SLM conjugate, PGA-DBFdiol conjugate, to the combination of both at a SLM-DBF mol ratio of 10:1 and to the combined PGA-SLM-DBFdiol conjugate, calculated according to the SLM loading and assuming 10:1 mol ratio between SLM and DBF, at serial dilutions. […]

melanoma xenografts = conditions: cited from earlier work
[1] = test system: MEK and ERK phosphorylation; conditions: BRAF mutated cell lines; cited from earlier work
mutant BRAF = conditions: cell lines; cited from earlier work

Structure (SMILES): Cn1cnc2c(F)c(Nc3ccc(Br)cc3Cl)c(C(=O)NOCCO)cc21 [SLM, Selumetinib]
- IC50 (131/4-5B1 melanoma cells): 70 nM

Structure (SMILES): CC(C)(C)c1nc(-c2cccc(NS(=O)(=O)c3c(F)cccc3F)c2F)c(-c2ccnc(N)n2)s1 [Dabrafenib]
- tumor regression (melanoma xenografts): induces tumor regression
- inhibition of MEK and ERK phosphorylation [1]: dose-dependent inhibition
- selectivity for mutant BRAF over wild-type BRAF (mutant BRAF): more than 100 fold
